Consider one substance from patent publication US10660855B2 (priority 2019, dated 2020).

The conditions of data set [1]: cited from earlier work.
Data set [2] in a line: Water-solubility / water-dispersing ability (FIG. 1). The class given is physicochemical. Particulars: FIG. 1, dispersed in water, bottle A vs bottle B.

Cannabidiol [CBD]: in data set [1] (in vivo), the half-life result was “about 9 hours”. Besides, the “bioavailability when being used nasally (inhalantly)” value in data set [1] (nasal (inhalation)) is given as “about 31%”. Further, the “bioavailability when being used orally” value in data set [1] (oral) was 13-19%. Further, the water-dispersing ability entry in data set [2] is given as “insoluble in water”.
